{"source": "patent US20230065953A1", "about": "“NOVEL HETEROARYL-TRIAZOLE COMPOUNDS AS PESTICIDES” (Bayer Aktiengesellschaft, priority 2019, published 2023)", "format_in_all_cases": "in vivo", "key": {"[1]": {"system": "larvae of the diamondback moth (Plutella xylostella)", "test": "Plutella xylostella spray test (PLUTMA), comparison", "conditions": "168 h, 7 dat, read-out: % Efficacy", "procedure": "Plutella xylostella—spray test (PLUTMA) • Solvent: 14 parts by weight of dimethylformamide • Emulsifier: alkylaryl polyglycol ether\n(§1) To produce a suitable preparation of active compound, 1 part by weight of active compound is mixed with the stated amount of solvent and is diluted with water, containing an emulsifier concentration of 1000 ppm, to the desired concentration. Further test concentrations are prepared by dilution with emulsifier containing water. Ammonium salt and/or penetration enhancer in a dosage of 1000 ppm are added to the desired concentration if necessary.\nCabbage leaves (Brassica oleracea) are treated by being sprayed with the preparation of the active compound of the desired concentration and are infested with larvae of the diamondback moth (Plutella xylostella).\nAfter the specified period of time, mortality in % is determined. 100% means all the caterpillars have been killed and 0% means none of the caterpillars have been killed."}, "[2]": {"system": "caterpillars of the fall army worm (Spodoptera frugiperda)", "test": "Spodoptera frugiperda spray test (SPODFR, cotton leaves), comparison", "conditions": "168 h, 7 dat, read-out: % Efficacy", "procedure": "Spodoptera fruaiperda—Spray Test (SPODFR) • Solvent: 14 parts by weight of dimethylformamide • Emulsifier: alkylaryl polyglycol ether\nas §1\nCotton leaves (Gossypium hirsutum) are treated by being sprayed with the preparation of the active compound of the desired concentration and are infested with caterpillars of the fall army worm (Spodoptera frugiperda).\nAfter the specified period of time mortality in % is determined. 100% means all the caterpillars have been killed and 0% means none of the caterpillars have been killed."}, "[3]": {"system": "larvae of the banded cucumber beetle (Diabrotica balteata)", "test": "Diabrotica balteata spray test", "conditions": "168 h, 100 g/ha (=32 μg/well), wheat seeds, after 7 days, read-out: efficacy (seedling growth)", "summary_of_the_method": "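Wheat seeds germinated 1 day on agar were sprayed with compound in acetone/dimethylformamide with alkylarylpolyglycol ether emulsifier, diluted in emulsifier-containing water. Each unit then received 10-20 larvae, and % efficacy was scored after 7 days.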"}, "[4]": {"system": "fall armyworm larvae (Spodoptera frugiperda)", "test": "Spodoptera frugiperda spray test (SPODFR, maize leaf sections), comparison", "conditions": "168 h, 7 dat, read-out: % Efficacy", "procedure": "Spodoptera fruaiperda—Spray Test (SPODFR) • Solvent: 78.0 parts by weight acetone • 1.5 parts by weight dimethylformamide • Emulsifier: alkylarylpolyglycol ether\nas §1, with “solvents” for “solvent”, “water.” for “water. Ammonium salt and/or penetration enhancer in a dosage of 1000 ppm are added to the desired concentration if necessary.”\nMaize (Zea mays) leaf sections are sprayed with a preparation of the active ingredient of the desired concentration. Once dry, the leaf sections are infested with fall armyworm larvae (Spodoptera frugiperda).\nAfter the specified period of time, mortality in % is determined in comparison to the untreated control plant. 100% means all caterpillars have been killed and 0% means none of the caterpillars have been killed."}, "[5]": {"system": "larvae of the southern green stink bug (Nezara viridula)", "test": "Nezara viridula spray test", "conditions": "in Hordeum vulgare, 96 h", "summary_of_the_method": "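Barley plants sprayed with compound in acetone/dimethylformamide, diluted in water with 1000 ppm alkylarylpolyglycol ether emulsifier, then infested with Nezara viridula larvae. Percent mortality read after 4 days (100% = all killed, 0% = none).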"}, "[6]": {"system": "fall armyworm larvae (Spodoptera frugiperda)", "test": "Spodoptera frugiperda spray test (maize leaf sections)", "conditions": "168 h", "summary_of_the_method": "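Maize leaf sections sprayed with compound in acetone/dimethylformamide, diluted in water with 1000 ppm alkylarylpolyglycol ether emulsifier. Dried sections infested with fall armyworm larvae. Mortality (%) scored after 7 days; 100% = all caterpillars killed.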"}, "[7]": {"system": "larvae of the southern green stink bug (Nezara viridula)", "test": "Nezara viridula spray test (NEZAVI), comparison", "conditions": "96 h, 500 g ai/ha, 4 dat, read-out: % Efficacy", "procedure": "Nezara viridula—Spray Test (NEZAVI) • Solvent: 78.0 parts by weight of acetone • 1.5 parts by weight of dimethylformamide • Emulsifier: alkylarylpolyglycol ether\nTo produce a suitable preparation of active compound, 1 part by weight of active compound is mixed with the stated amount of solvent, and the concentrate is diluted with water, containing an emulsifier concentration of 1000 ppm, to the desired concentration. Further test concentrations are prepared by dilution with emulsifier containing water.\nBarley plants (Hordeum vulgare) are sprayed with a test solution containing the desired concentration of the active ingredient and are infested with larvae of the southern green stink bug (Nezara viridula).\nAfter the specified period of time, mortality in % is determined in comparison to the untreated control plant. 100% means all the stink bugs have been killed; 0% means none of the stink bugs have been killed."}}}
{"compound": "C[C@H](NC(=O)c1cc(Cl)cc(C(F)(F)F)c1)c1ncnn1-c1ncc(C(F)(F)F)s1", "note": "[I-085]", "values": [{"measurement": "mortality at 20 ppm", "setting": "[1]", "result": 40, "unit": "%"}, {"measurement": "Emax at 4 ppm", "setting": "[2]", "result": 20, "unit": "%"}]}
{"compound": "CNC(=O)c1cnc(-n2ncnc2[C@H](C)NC(=O)c2cc(Cl)cc(S(=O)(=O)C(F)(F)F)c2)s1", "note": "[I-110]", "values": [{"measurement": "pest or weed control at 32 µg/disc, 100 g/ha", "setting": "[3]", "result": 100, "unit": "%"}, {"measurement": "Emax at 20 g/ha", "setting": "[4]; 20 g ai/ha", "result": 67, "unit": "%"}, {"measurement": "larval mortality at 100 g/ha", "setting": "[4]; 100 g ai/ha", "result": 100, "unit": "%"}, {"measurement": "mortality at 100 g/ha", "setting": "[5]", "result": 90, "unit": "%"}, {"measurement": "mortality at 500 g/ha", "setting": "[5]", "result": 100, "unit": "%"}, {"measurement": "mortality at 100 g/ha", "setting": "[6]", "result": 100, "unit": "%"}, {"measurement": "stink bug mortality at 500 g/ha", "setting": "[7]", "result": 100, "unit": "%"}]}
